As a reminder, the IC50 is the midpoint of a concentration-inhibition curve.

Structures are written as SMILES.

T1 sequence (P31749 whole entry E17K): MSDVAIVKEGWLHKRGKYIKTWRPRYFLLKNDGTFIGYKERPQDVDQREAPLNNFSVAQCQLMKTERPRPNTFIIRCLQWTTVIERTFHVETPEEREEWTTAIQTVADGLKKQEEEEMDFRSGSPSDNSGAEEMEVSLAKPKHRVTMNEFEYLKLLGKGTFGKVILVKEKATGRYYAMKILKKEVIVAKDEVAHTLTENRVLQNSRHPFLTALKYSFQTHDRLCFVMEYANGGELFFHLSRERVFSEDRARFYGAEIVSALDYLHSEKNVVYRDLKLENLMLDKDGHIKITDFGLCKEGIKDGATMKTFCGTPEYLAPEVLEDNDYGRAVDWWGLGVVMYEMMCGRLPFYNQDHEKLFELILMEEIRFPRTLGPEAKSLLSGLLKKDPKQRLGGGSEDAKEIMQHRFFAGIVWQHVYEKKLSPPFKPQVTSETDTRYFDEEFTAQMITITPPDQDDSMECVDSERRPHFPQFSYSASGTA

The first test has as its target T1, full length AKT E17K (Homo sapiens, UniProt P31749, E17K).
T1 construct: host or cells: HEK-293 (ATCC CRL-1573)
Description: NanoBRET Target Engagement (TE) Assay. Type of test: cell-based. As to conditions: competitive displacement of tracer in cells, read-out: AKT1 E17K IC50. In outline: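 Compound and tracer incubated 2 h before luminescence at donor 450 nm and acceptor 600 nm, with extracellular signal inhibited. EC50 by sigmoidal variable-slope regression.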
On the technique in general: In BRET a luciferase serves as donor, and the signal depends on an acceptor being close.
As for `N#Cc1nccc(NC2CCN(Cc3ccc(-n4c(-c5cccnc5N)nc5ccc(C6COC6)nc54)cc3)CC2)n1` [Example 420, 4-((1-(4-(2-(2-Aminopyridin-3-yl)-5-(oxetan-3-yl)-3H-imidazo[4,5-h]pyridin-3-yl)benzyl)piperidin-4-yl)amino)pyrimidine-2-carbonitrile], the IC50 was below 15 nM.

For the compound `N#Cc1nccc(NC2CCN(Cc3ccc(-n4c(-c5cccnc5N)nc5ccc(-c6ccc(F)cc6Cl)nc54)cc3)CC2)n1` [Example 498, 4-((1-(4-(2-(2-Aminopyridin-3-yl)-5-(2-chloro-4-fluorophenyl)-3H-imidazo[4,5-b]pyridin-3-yl)benzyl)piperidin-4-yl)amino)pyrimidine-2-carbonitrile], the IC50 was in the range of 15 to 60 nM.

As to `[2H]C([2H])([2H])N(c1ccnc(C#N)n1)C1CCN(C([2H])([2H])c2ccc(-n3c(-c4cccnc4N)nc4cccnc43)cc2)CC1` [Example 502, 4-((1-((4-(2-(2-Aminopyridin-3-yl)-3H-imidazo[4,5-b]pyridin-3-yl)phenyl)methyl-d2)piperidin-4-yl)(methyl-d3)amino)pyrimidine-2-carbonitrile], the IC50 lay within 15 to 60 nM. Still for that read-out and setting: under `COc1ccccc1-c1ccc2nc(-c3cccnc3N)n(-c3ccc(CN4CCC(Nc5ccnc(C#N)n5)CC4)cc3)c2n1` [Example 422, 4-((1-(4-(2-(2-Aminopyridin-3-yl)-5-(2-methoxyphenyl)-3H-imidazo[4,5-b]pyridin-3-yl)benzyl)piperidin-4-yl)amino)pyrimidine-2-carbonitrile] stands below 15 nM; under `N#Cc1nccc(NC2CCN(Cc3ccc(-n4c(-c5cccnc5N)nc5ccc(N6CCNC(=O)CC6)nc54)cc3)CC2)n1` [Example 323, 4-((1-(4-(2-(2-Aminopyridin-3-yl)-5-(5-oxo-1,4-diazepan-1-yl)-3H-imidazo[4,5-b]pyridin-3-yl)benzyl)piperidin-4-yl)amino)pyrimidine-2-carbonitrile], 600 to 10000 nM.

Take `[2H]C([2H])([2H])N(c1ccnc(C#N)n1)C1CCN(Cc2ccc(-n3c(-c4cccnc4N)nc4cc(C)c(C)nc43)cc2)CC1` [Example 455, 4-((1-(4-(2-(2-Aminopyridin-3-yl)-5,6-dimethyl-3H-imidazo[4,5-b]pyridin-3-yl)benzyl)piperidin-4-yl)(methyl-d3)amino)pyrimidine-2-carbonitrile]: the IC50 was below 15 nM. For the compound `[2H]C([2H])([2H])Oc1ccc(-c2ccc3nc(-c4nccnc4N)n(-c4ccc(CN5CCC(Nc6ccnc(C#N)n6)CC5)cc4)c3n2)nc1` [Example 638, 4-((1-(4-(2-(3-Aminopyrazin-2-yl)-5-(5-(methoxy-d3)pyridin-2-yl)-3H-imidazo[4,5-b]pyridin-3-yl)benzyl)piperidin-4-yl)amino)pyrimidine-2-carbonitrile], the IC50 was below 15 nM.

`N#Cc1ccnc(N2CCN(Cc3ccc(-n4c(-c5cccnc5N)nc5ccc(-c6ccccc6Cl)nc54)cc3)CC2)n1` [Example 325, 2-(4-(4-(2-(2-Aminopyridin-3-yl)-5-(2-chlorophenyl)-3H-imidazo[4,5-b]pyridin-3-yl)benzyl)piperazin-1-yl)pyrimidine-4-carbonitrile]: the IC50 was 15 to 60 nM. The same measure, in the same setting: under `N#Cc1nccc(NC2CCN(Cc3ccc(-n4c(-c5cccnc5N)nc5ccc(-c6ccns6)nc54)cc3)CC2)n1` [Example 483, 4-((1-(4-(2-(2-Aminopyridin-3-yl)-5-(isothiazol-5-yl)-3H-imidazo[4,5-b]pyridin-3-yl)benzyl)piperidin-4-yl)amino)pyrimidine-2-carbonitrile] stands below 15 nM; under `Cn1c(-c2ccc3nc(-c4cccnc4N)n(-c4ccc(CN5CCN(c6ccnc(C#N)n6)CC5)cc4)c3n2)cccc1=O` [Example 394, 4-(4-(4-(2-(2-Aminopyridin-3-yl)-5-(1-methyl-6-oxo-1,6-dihydropyridin-2-yl)-3H-imidazo[4,5-b]pyridin-3-yl)benzyl)piperazin-1-yl)pyrimidine-2-carbonitrile], 600 to 10000 nM. As for `[2H]C([2H])([2H])N(c1ccnc(C#N)n1)C1CCN(C([2H])([2H])c2ccc(-n3c(-c4cccnc4N)nc4ccc(-c5ccc(F)cc5)nc43)cc2)CC1` [Example 442, 4-((1-((4-(2-(2-Aminopyridin-3-yl)-5-(4-fluorophenyl)-3H-imidazo[4,5-b]pyridin-3-yl)phenyl)methyl-d2)piperidin-4-yl)(methyl-d3)amino)pyrimidine-2-carbonitrile], the IC50 was below 15 nM. Same read-out and setting: to `Cn1c(-c2ccc3nc(-c4cccnc4N)n(-c4ccc(CN5CCC(Nc6ccnc(C#N)n6)CC5)cc4)c3n2)cccc1=O` [Example 393, 4-((1-(4-(2-(2-Aminopyridin-3-yl)-5-(1-methyl-6-oxo-1,6-dihydropyridin-2-yl)-3H-imidazo[4,5-b]pyridin-3-yl)benzyl)piperidin-4-yl)amino)pyrimidine-2-carbonitrile] belongs 600 to 10000 nM.

For the compound `N#Cc1ccc2nc(-c3cccnc3N)n(-c3ccc(CN4CCC(Nc5ccnc(C#N)n5)CC4)cc3)c2c1` [Example 500, 2-(2-Aminopyridin-3-yl)-1-(4-((4-((2-cyanopyrimidin-4-yl)amino)piperidin-1-yl)methyl)phenyl)-1H-benzo[d]imidazole-6-carbonitrile], the IC50 is below 15 nM.

With `N#Cc1ccc2nc(-c3cccnc3N)n(-c3ccc(CN4CCC(Nc5ccnc(C#N)n5)CC4)cc3)c2n1` [Example 406, 2-(2-Aminopyridin-3-yl)-3-(4-((4-((2-cyanopyrimidin-4-yl)amino)piperidin-1-yl)methyl)phenyl)-3H-imidazo[4,5-b]pyridine-5-carbonitrile], the IC50 was below 15 nM. Still for that read-out and setting: to `N#Cc1nccc(NC2CCN(Cc3ccc(-n4c(-c5conc5N)nc5ccc(-c6ccc(F)cn6)nc54)cc3)CC2)n1` [Example 622, 4-((1-(4-(2-(3-Aminoisoxazol-4-yl)-5-(5-fluoropyridin-2-yl)-3H-imidazo[4,5-b]pyridin-3-yl)benzyl)piperidin-4-yl)amino)pyrimidine-2-carbonitrile] belongs 60 to 600 nM; to `N#Cc1nccc(NC2CCN(Cc3ccc(-n4c(-c5cccnc5N)nc5ccc(-c6cnn(C(F)F)c6)nc54)cc3)CC2)n1` [Example 474, 4-((1-(4-(2-(2-Aminopyridin-3-yl)-5-(1-(difluoromethyl)-1H-pyrazol-4-yl)-3H-imidazo[4,5-b]pyridin-3-yl)benzyl)piperidin-4-yl)amino)pyrimidine-2-carbonitrile], below 15 nM. For `COC(=O)Nc1cccc(-c2ccc3nc(-c4cccnc4N)n(-c4ccc(CN5CCC(Nc6ccnc(C#N)n6)CC5)cc4)c3n2)c1` [Example 520, Methyl (3-(2-(2-aminopyridin-3-yl)-3-(4-((4-((2-cyanopyrimidin-4-yl)amino)piperidin-1-yl)methyl)phenyl)-3H-imidazo[4,5-b]pyridin-5-yl)phenyl)carbamate], the IC50 is below 15 nM.

Still in this test, the particulars now being: competitive tracer displacement in living cells, read-out: AKT1 E17K IC50.
For `C[C@H]1CN(Cc2ccc(-n3c(-c4cccnc4N)nc4ccc(-c5ccccc5)nc43)cc2)C[C@H](C)N1c1ncnc(C#N)n1` [Example 275, 4-((2S,6S)-4-(4-(2-(2-Aminopyridin-3-yl)-5-phenyl-3H-imidazo[4,5-b]pyridin-3-yl)benzyl)-2,6-dimethylpiperazin-1-yl)-1,3,5-triazine-2-carbonitrile], the IC50 was below 15 nM. Turning to `N#Cc1cc(N2CC3CCC(C2)N3Cc2ccc(-n3c(-c4cccnc4N)nc4ccc(-c5ccccc5)nc43)cc2)ncn1` [Example 213, 6-(8-(4-(2-(2-Aminopyridin-3-yl)-5-phenyl-3H-imidazo[4,5-b]pyridin-3-yl)benzyl)-3,8-diazabicyclo[3.2.1]octan-3-yl)pyrimidine-4-carbonitrile], the IC50 is 15 to 60 nM.

In the case of `N#Cc1ccnc(NCc2ccc(-n3c(-c4cccnc4N)nc4cccnc43)cc2)n1` [Example 134, 2-((4-(2-(2-Aminopyridin-3-yl)-3H-imidazo[4,5-b]pyridin-3-yl)benzyl)amino)pyrimidine-4-carbonitrile], the IC50 fell in the range of 600 to 10000 nM. The same measure, in the same setting: under `N#Cc1ncnc(NC2COCCN(Cc3ccc(-n4c(-c5cccnc5N)nc5ccc(-c6ccccc6)nc54)cc3)C2)n1` (stereo not shown) [Example 279, 4-((4-(4-(2-(2-Aminopyridin-3-yl)-5-phenyl-3H-imidazo[4,5-b]pyridin-3-yl)benzyl)-1,4-oxazepan-6-yl)amino)-1,3,5-triazine-2-carbonitrile] stands below 15 nM; under `[2H]C([2H])(c1ccc(-n2c(-c3cccnc3N)nc3ccc(-c4ccccc4)nc32)cc1)N1CCC(Nc2ccnc(C#N)n2)CC1` [Example 222, 4-((1-((4-(2-(2-Aminopyridin-3-yl)-5-phenyl-3H-imidazo[4,5-h]pyridin-3-yl)phenyl)methyl-d2)piperidin-4-yl)amino)pyrimidine-2-carbonitrile], below 15 nM. With `C[C@@H]1CN(Cc2ccc(-n3c(-c4cccnc4N)nc4ccc(-c5ccccc5)nc43)cc2)C[C@@H](C)N1c1ncnc(C#N)n1` [Example 256, 4-((2R,6R)-4-(4-(2-(2-Aminopyridin-3-yl)-5-phenyl-3H-imidazo[4,5-b]pyridin-3-yl)benzyl)-2,6-dimethylpiperazin-1-yl)-1,3,5-triazine-2-carbonitrile], the IC50 lay within 15 to 60 nM. In the case of `C[C@H]1CN(Cc2ccc(-n3c(-c4cccnc4N)nc4ccc(-c5ccccc5)nc43)cc2)C[C@H](C)N1c1ccnc(C#N)n1` [Example 192, 4-((2S,6S)-4-(4-(2-(2-Aminopyridin-3-yl)-5-phenyl-3H-imidazo[4,5-b]pyridin-3-yl)benzyl)-2,6-dimethylpiperazin-1-yl)pyrimidine-2-carbonitrile], the IC50 lay in the range of 15 to 60 nM.

With `N#Cc1ncnc(N2CC[C@]3(CCN(Cc4ccc(-n5c(-c6cccnc6N)nc6ccc(-c7ccccc7)nc65)cc4)C3)C2)n1` [Example 269, (S)-4-(7-(4-(2-(2-Aminopyridin-3-yl)-5-phenyl-3H-imidazo[4,5-b]pyridin-3-yl)benzyl)-2,7-diazaspiro[4.4]nonan-2-yl)-1,3,5-triazine-2-carbonitrile], the IC50 is below 15 nM.

For the origin of these results see patent US12209087B2, “AKT1 modulators” (Alterome Therapeutics, Inc., priority 2022, dated 2025).
